The values below come from patent US9012493B2, “1-heterodiene derivative and pest control agent” (Nippon Soda Co., Ltd., priority 2009, dated 2015).

The first assay relates to Rice Armyworm (Mythimna Separata). As to the kind of experiment: Efficacy test against rice armyworm, corn leaf dip. Format: in vivo. The settings on record: 125 ppm, emulsifiable concentrate diluted with water, corn leaves immersed, second instar larvae, after 5 days, 25° C. The procedure:
(§1) Test Examples of the pest control agent thus obtained according to the present invention are shown below. In respective Test Examples, the insecticidal rate (%) was determined by the following calculation equation. Insecticidal rate (%)=(number of dead pests/number of released pests)×100
The emulsifiable concentrate obtained according to Formulation of Formulation Example 2 was diluted with water so as to control the concentration of the compound to 125 ppm. Leaves of corn were immersed in this diluted solution for 30 seconds and then air-dried. The leaves were put in a petri dish on which a filter paper is laid, and then five second instar larvae of rice armyworm were inoculated. After covering the petri dish with a glass lid, the petri dish was placed in a temperature-controlled room at a temperature of 25° C. and a humidity of 65%. After 5 days, life and death were examined and the insecticidal rate was determined. The test was repeated twice.
The compound `C=C1SC(=Nc2ccccc2)C(=CSc2ccccc2)CC1(C)C` [Compound 2-53] displayed an insecticidal rate of 100%.

Compound `C=C1SC(=Nc2c(F)cccc2F)C(=CSc2ccccc2)CC1(C)C` [Compound 2-31] registered an insecticidal rate of 100%.

For `C=C1SC(=Nc2ccc(OC)cc2)C(=CSc2ccccc2)CC1(C)C` [Compound 2-16], the insecticidal rate turned out to be 100%.

In turn, `C=C1SC(=Nc2ccc(C)cc2)C(=CSc2ccc(N(C)C)cc2)CC1(C)C` [Compound 2-97] gave an insecticidal rate of 100%.

Take `C=C1SC(=Nc2c(C)cc(C)cc2C)C(=CSc2cccs2)CC1(C)C` [Compound 2-66]: the insecticidal rate was 100%.

In the case of `C=C1SC(=Nc2ccccc2)C(=CSc2nccc(C)n2)CC1(C)C` [Compound 2-128], the insecticidal rate was determined as 100%.

Compound `C=C1SC(=Nc2cccc(Cl)c2)C(=CSc2ccccc2)CC1(C)C` [Compound 2-29] gave an insecticidal rate of 100%.

Compound `C=C1SC(=Nc2ccccc2)C(=CSc2ccc(F)cc2)CC1(C)C` [Compound 2-54] returned an insecticidal rate of 100%.

Turning to `C=C1SC(=Nc2ccc(OC)cc2)C(=COc2ccccc2)CC1(C)C` [Compound 2-55], the insecticidal rate turned out to be 100%.

Regarding `C=C1SC(=Nc2ccc(OC)cc2F)C(=CSc2ccccc2)CC1(C)C` [Compound 2-33], the insecticidal rate is 100%.

On to `C=C1SC(=Nc2cccc(Cl)c2Cl)C(=CSc2ccccc2)CC1(C)C` [Compound 2-37], for which the insecticidal rate stood at 100%.

Compound `C=C1SC(=Nc2ccc(C)cc2)C(=CSc2ccoc2C)CC1(C)C` [Compound 2-93] registered an insecticidal rate of 100%.

Compound `C=C1SC(=Nc2ccc(OC)cc2)C(=CSC2CCCC2)CC1(C)C` [Compound 2-58] displayed an insecticidal rate of 100%.

Consider `C=C1SC(=Nc2ccc(OC)cc2)C(=CSc2nccc(C)n2)CC1(C)C` [Compound 2-127], for which the insecticidal rate amounted to 100%.

As for `C=C1SC(=Nc2ccc(OC)cc2C)C(=CSc2ccc(OC)cc2)CC1(C)C` [Compound 2-42], the insecticidal rate came out at 100%.

Compound `C=C1SC(=Nc2ccc3c(c2)OCO3)C(=CSc2ccccc2)CC1(C)C` [Compound 2-39] gave an insecticidal rate of 100%.

`C=C1SC(=Nc2c(C)cc(C)cc2C)C(=CSc2ccccc2)CC1(C)C` [Compound 2-63] registered an insecticidal rate of 100%.

In turn, `C#CCSC=C1CC(C)(C)C(=C)SC1=Nc1ccc(C)cc1` [Compound 2-122] displayed an insecticidal rate of 100%.

A further assay deals with Cotton Aphid (Aphis Gossypii). As to the kind of experiment: Efficacy test against cotton aphid, spray on cucumber plant. The following applies: 125 ppm, emulsifiable concentrate diluted with water, sprayed over cucumber plant with nymphs, after 5 days, 25° C. It counts as in vivo. As to the method:
as §1
The emulsifiable concentrate obtained according to Formulation of Formulation Example 2 was diluted with water so as to control the concentration of the compound to 125 ppm. Adults of cotton aphids were inoculated to a cucumber plant (approximately 10 days after sprouting) sown in a 3 sun/size pot (9 cm). After 1 day, adult aphids were removed and the diluted solution was sprayed over the cucumber plant on which delivered nymphs are parasitic. The pot was placed in a temperature-controlled room at a temperature of 25° C. and a humidity of 65%. After 5 days, life and death were examined and the insecticidal rate was determined. The test was repeated twice.
`C=C1SC(=Nc2ccccc2)C(=CSc2ccccc2)CC1(C)C` [Compound 2-53] gave an insecticidal rate of 100%.

The compound `C=C1SC(=Nc2c(F)cccc2F)C(=CSc2ccccc2)CC1(C)C` [Compound 2-31] showed an insecticidal rate of 100%.

`C=C1SC(=Nc2ccc(OC)cc2)C(=CSc2ccccc2)CC1(C)C` [Compound 2-16] had an insecticidal rate of 100%.

`C=C1SC(=Nc2ccc(C)cc2)C(=CSc2ccc(N(C)C)cc2)CC1(C)C` [Compound 2-97] had an insecticidal rate of 100%.

The compound `C=C1SC(=Nc2c(C)cc(C)cc2C)C(=CSc2cccs2)CC1(C)C` [Compound 2-66] showed an insecticidal rate of 100%.

In turn, `C=C1SC(=Nc2ccccc2)C(=CSc2nccc(C)n2)CC1(C)C` [Compound 2-128] registered an insecticidal rate of 100%.

In turn, `C=C1SC(=Nc2cccc(Cl)c2)C(=CSc2ccccc2)CC1(C)C` [Compound 2-29] gave an insecticidal rate of 100%.

`C=C1SC(=Nc2ccccc2)C(=CSc2ccc(F)cc2)CC1(C)C` [Compound 2-54] displayed an insecticidal rate of 100%.

As for `C=C1SC(=Nc2ccc(OC)cc2)C(=COc2ccccc2)CC1(C)C` [Compound 2-55], the insecticidal rate amounted to 100%.

Compound `C=C1SC(=Nc2ccc(OC)cc2F)C(=CSc2ccccc2)CC1(C)C` [Compound 2-33] came in with an insecticidal rate of 100%.

Consider `C=C1SC(=Nc2cccc(Cl)c2Cl)C(=CSc2ccccc2)CC1(C)C` [Compound 2-37], for which the insecticidal rate is recorded as 100%.

As to `C=C1SC(=Nc2ccc(C)cc2)C(=CSc2ccoc2C)CC1(C)C` [Compound 2-93], the insecticidal rate was found to be 100%.

In turn, `C=C1SC(=Nc2ccc(OC)cc2)C(=CSC2CCCC2)CC1(C)C` [Compound 2-58] had an insecticidal rate of 100%.

The compound `C=C1SC(=Nc2ccc(OC)cc2)C(=CSc2nccc(C)n2)CC1(C)C` [Compound 2-127] had an insecticidal rate of 100%.

With `C=C1SC(=Nc2ccc(OC)cc2C)C(=CSc2ccc(OC)cc2)CC1(C)C` [Compound 2-42], the insecticidal rate stood at 100%.

Turning to `C=C1SC(=Nc2ccc3c(c2)OCO3)C(=CSc2ccccc2)CC1(C)C` [Compound 2-39], the insecticidal rate was determined as 100%.

`C=C1SC(=Nc2c(C)cc(C)cc2C)C(=CSc2ccccc2)CC1(C)C` [Compound 2-63] showed an insecticidal rate of 100%.

In the case of `C#CCSC=C1CC(C)(C)C(=C)SC1=Nc1ccc(C)cc1` [Compound 2-122], the insecticidal rate was 100%.

In the next assay the test system is Sweetpotato Whitefly (Bemisia Tabaci). As to the kind of experiment: Efficacy test against sweetpotato whitefly, sprayed tomato leaf. It counts as in vivo. The settings on record: 125 ppm, emulsifiable concentrate diluted with water, adults (type B), after 2 days, 25° C. The procedure: as §1
The emulsifiable concentrate obtained according to Formulation of Formulation Example 2 was diluted with water so as to control the concentration of the compound to 125 ppm. The diluted solution was sprayed over a tomato leaf obtained by cutting and then air-dried. Using absorbent cotton, the leaf was fixed to a flask so that a front surface of the leaf faces upward. Seven pairs of adults of sweetpotato whitefly (type B) were inoculated in this container, and the container was placed in a temperature-controlled room at a temperature of 25° C. and a humidity of 65%. After 2 days, life and death were examined and the insecticidal rate was determined. The test was repeated twice.
Compound `C=C1SC(=Nc2ccccc2)C(=CSc2ccccc2)CC1(C)C` [Compound 2-53] displayed an insecticidal rate of 100%.

The compound `C=C1SC(=Nc2c(F)cccc2F)C(=CSc2ccccc2)CC1(C)C` [Compound 2-31] gave an insecticidal rate of 100%.

As to `C=C1SC(=Nc2ccc(OC)cc2)C(=CSc2ccccc2)CC1(C)C` [Compound 2-16], the insecticidal rate is reported as 100%.

`C=C1SC(=Nc2ccc(C)cc2)C(=CSc2ccc(N(C)C)cc2)CC1(C)C` [Compound 2-97] displayed an insecticidal rate of 100%.

As to `C=C1SC(=Nc2c(C)cc(C)cc2C)C(=CSc2cccs2)CC1(C)C` [Compound 2-66], the insecticidal rate worked out at 100%.

`C=C1SC(=Nc2ccccc2)C(=CSc2nccc(C)n2)CC1(C)C` [Compound 2-128] came in with an insecticidal rate of 100%.

For `C=C1SC(=Nc2cccc(Cl)c2)C(=CSc2ccccc2)CC1(C)C` [Compound 2-29], the insecticidal rate was determined as 100%.

As to `C=C1SC(=Nc2ccccc2)C(=CSc2ccc(F)cc2)CC1(C)C` [Compound 2-54], the insecticidal rate is on record as 100%.

`C=C1SC(=Nc2ccc(OC)cc2)C(=COc2ccccc2)CC1(C)C` [Compound 2-55] yielded an insecticidal rate of 100%.

`C=C1SC(=Nc2ccc(OC)cc2F)C(=CSc2ccccc2)CC1(C)C` [Compound 2-33] gave an insecticidal rate of 100%.

The compound `C=C1SC(=Nc2cccc(Cl)c2Cl)C(=CSc2ccccc2)CC1(C)C` [Compound 2-37] registered an insecticidal rate of 100%.

The compound `C=C1SC(=Nc2ccc(C)cc2)C(=CSc2ccoc2C)CC1(C)C` [Compound 2-93] showed an insecticidal rate of 100%.

`C=C1SC(=Nc2ccc(OC)cc2)C(=CSC2CCCC2)CC1(C)C` [Compound 2-58] had an insecticidal rate of 100%.

Consider `C=C1SC(=Nc2ccc(OC)cc2)C(=CSc2nccc(C)n2)CC1(C)C` [Compound 2-127], for which the insecticidal rate was 100%.

In turn, `C=C1SC(=Nc2ccc(OC)cc2C)C(=CSc2ccc(OC)cc2)CC1(C)C` [Compound 2-42] had an insecticidal rate of 100%.

The compound `C=C1SC(=Nc2ccc3c(c2)OCO3)C(=CSc2ccccc2)CC1(C)C` [Compound 2-39] had an insecticidal rate of 100%.

`C=C1SC(=Nc2c(C)cc(C)cc2C)C(=CSc2ccccc2)CC1(C)C` [Compound 2-63] showed an insecticidal rate of 100%.

With `C#CCSC=C1CC(C)(C)C(=C)SC1=Nc1ccc(C)cc1` [Compound 2-122], the insecticidal rate is 100%.
